Literature values in patent publication US9610295B2, “Method for treating erectile dysfunction” (priority 2010, dated 2017).

How the values were obtained:
[1] = target: phosphodiesterase type 5 (PDE5) (Homo sapiens, UniProt O76074); conditions: PDE5 vs PDE6
[2] = oral administration, Viagra formulation
[3] = in vivo

| SMILES | potency for PDE5 compared to PDE6 [1] | absolute bioavailability [2] | half-life [3] |
| --- | --- | --- | --- |
| CCCc1nn(C)c2c(=O)[nH]c(-c3cc(S(=O)(=O)N4CCN(C)CC4)ccc3OCC)nc12 [sildenafil, 1-[[3-(6,7-dihydro-1-methyl-7-oxo-3-propyl-1H-pyrazolo[4,3-d]pyrimidin-5-yl)-4-ethoxyphenyl]sulfonyl]-4-methyl piperazine] | about 10 fold | about 40% |  |
| CN1CC(=O)N2[C@H](c3ccc4c(c3)OCO4)c3[nH]c4ccccc4c3C[C@@H]2C1=O [tadalafil, (6R-trans)-6-(1,3-benzodioxol-5-yl)-2,3,6,7,12,12a-hexahydro-2-methylpyrazino[1,2:1,6]-pyrido[3,4-6]indole-1,4-dione] |  |  | about 17.5 hours |
